Experimental findings from patent publication US11970494B2, “6-heteroaryloxy benzimidazoles and azabenzimidazoles as JAK2 inhibitors” (Ajax Therapeutics, Inc., priority 2021, dated 2024) are described below.

This test deals with T1, JAK2 (JH1 domain-catalytic, Y1007F,Y1008F) kinase (Homo sapiens, UniProt O60674, Y1007F/Y1008F).
T1 construct: made in house; host or cells: transiently transfected HEK293 cells
T1 sequence (O60674 849-1124 Y1007F/Y1008F limits assumed): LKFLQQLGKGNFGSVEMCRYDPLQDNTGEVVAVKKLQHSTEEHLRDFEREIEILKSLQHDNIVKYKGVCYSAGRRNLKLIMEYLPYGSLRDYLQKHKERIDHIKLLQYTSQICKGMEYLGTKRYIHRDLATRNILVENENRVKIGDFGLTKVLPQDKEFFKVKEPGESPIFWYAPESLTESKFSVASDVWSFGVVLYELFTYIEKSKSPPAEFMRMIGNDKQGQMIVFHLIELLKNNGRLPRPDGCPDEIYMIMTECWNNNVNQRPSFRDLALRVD
The test can be described thus: JAK2 Binding Assay (JAK2 JH1 Domain Binding Assay). The following applies: JAK2 JH1 domain binding, qPCR detection; read-out: JAK2 Kd. For orientation: Real-time PCR tracks product formation cycle by cycle.
What is called Kd is the free concentration of one partner at which half of the binding sites on the other are occupied at equilibrium, for simple one-to-one binding. `Cn1cc(C(F)(F)F)cc(Nc2nc3ncc(Oc4ccnc(NC(=O)C[C@@H]5CCCCO5)c4)c(C#N)c3n2C)c1=O` (single isomer, unassigned) [Example I-74-a]: the Kd is below 10 nM.

With `CN1CCO[C@H](CC(=O)Nc2cc(Oc3cnc4nc(Nc5cc(C(F)(F)F)cn(C)c5=O)n(C)c4c3Cl)ccn2)C1` (single isomer, unassigned) [Example I-78-a], the Kd is below 10 nM.

With `CN1CCO[C@@H](CC(=O)Nc2cc(Oc3cnc4nc(Nc5cc(C(F)(F)F)cn(C)c5=O)n(C)c4c3Cl)ccn2)C1` (single isomer, unassigned) [Example I-78-b], the Kd is below 10 nM.

As to `CN1CCO[C@H](CC(=O)Nc2cc(Oc3cnc4nc(Nc5cc(C(F)(F)F)cn(C)c5=O)n(C)c4c3C#N)ccn2)C1` (single isomer, unassigned) [Example I-90-a], the Kd is below 10 nM.

With `CN1CCO[C@@H](CC(=O)Nc2cc(Oc3cnc4nc(Nc5cc(C(F)(F)F)cn(C)c5=O)n(C)c4c3C#N)ccn2)C1` (single isomer, unassigned) [Example I-90-b], the Kd is below 10 nM.

`CC(=O)Nc1cc(Oc2cnc3nc(Nc4cc([C@H]5CCOC5)nc(C(F)(F)F)c4)n(C)c3c2Cl)ccn1` (single isomer, unassigned) [Example I-91-a]: the Kd was below 10 nM.

Regarding `CC(=O)Nc1cc(Oc2cnc3nc(Nc4cc([C@@H]5CCOC5)nc(C(F)(F)F)c4)n(C)c3c2Cl)ccn1` (single isomer, unassigned) [Example I-91-b], the Kd was below 10 nM.

Take `CC(=O)Nc1cc(Oc2cnc3nc(Nc4cc([C@H]5CCOC5)nc(C(F)(F)F)c4)n(C)c3c2C#N)ccn1` (single isomer, unassigned) [Example I-95-i]: the Kd was below 10 nM.

On to `CC(=O)Nc1cc(Oc2cnc3nc(Nc4cc([C@@H]5CCOC5)nc(C(F)(F)F)c4)n(C)c3c2C#N)ccn1` (single isomer, unassigned) [Example I-95-ii], for which the dissociation constant (Kd) was below 10 nM.

In the case of `CC(=O)Nc1cc(Oc2cnc3nc(Nc4cc([C@H]5CCCN5C)cc(C(F)(F)F)c4)n(C)c3c2Cl)ccn1` (single isomer, unassigned) [Example I-102-a], the Kd is below 10 nM.

On to `CC(=O)Nc1cc(Oc2cnc3nc(Nc4cc([C@@H]5CCCN5C)cc(C(F)(F)F)c4)n(C)c3c2Cl)ccn1` (single isomer, unassigned) [Example I-102-b], for which the Kd is below 10 nM.

Regarding `CC(=O)Nc1cc(Oc2cnc3nc(Nc4ccc([C@H]5CCCN5C)c(C(F)(F)F)c4)n(C)c3c2Cl)ccn1` (single isomer, unassigned) [Example I-108-a], the dissociation constant (Kd) was below 10 nM.

With `CC(=O)Nc1cc(Oc2cnc3nc(Nc4ccc([C@@H]5CCCN5C)c(C(F)(F)F)c4)n(C)c3c2Cl)ccn1` (single isomer, unassigned) [Example I-108-b], the Kd was below 10 nM.

With `CC(=O)Nc1cc(Oc2cnc3nc(Nc4ccc([C@H]5CCCN5C)c(C(F)(F)F)c4)n(C)c3c2C#N)ccn1` (single isomer, unassigned) [Example I-109-a], the Kd was below 10 nM.

As for `CC(=O)Nc1cc(Oc2cnc3nc(Nc4ccc([C@@H]5CCCN5C)c(C(F)(F)F)c4)n(C)c3c2C#N)ccn1` (single isomer, unassigned) [Example I-109-b], the dissociation constant Kd was below 10 nM.

Regarding `CNC(=O)Nc1cc(Oc2cnc3nc(Nc4cc(C(F)(F)F)cn(C)c4=O)n(C)c3c2C#N)ccn1` [Example I-5, 1-(4-((7-cyano-1-methyl-2-((1-methyl-2-oxo-5-(trifluoromethyl)-1,2-dihydropyridin-3-yl)amino)-1H-imidazo[4,5-b]pyridin-6-yl)oxy)pyridin-2-yl)-3-methylurea], the Kd is below 10 nM.

Turning to `CN1CCN(C(=O)Nc2cc(Oc3cnc4nc(Nc5cc(C(F)(F)F)cn(C)c5=O)n(C)c4c3C#N)ccn2)CC1` [Example I-6, N-(4-((7-cyano-1-methyl-2-((1-methyl-2-oxo-5-(trifluoromethyl)-1,2-dihydropyridin-3-yl)amino)-1H-imidazo[4,5-b]pyridin-6-yl)oxy)pyridin-2-yl)-4-methylpiperazine-1-carboxamide], the Kd was below 10 nM.

As to `Cn1cc(C(F)(F)F)cc(Nc2nc3ncc(Oc4ccnc(NC(=O)N5CC(O)C5)c4)c(C#N)c3n2C)c1=O` [Example I-8, N-(4-((7-cyano-1-methyl-2-((1-methyl-2-oxo-5-(trifluoromethyl)-1,2-dihydropyridin-3-yl)amino)-1H-imidazo[4,5-b]pyridin-6-yl)oxy)pyridin-2-yl)hydroxyazetidine-1-carboxamide], the Kd is below 10 nM.

For `COC1CN(C(=O)Nc2cc(Oc3cnc4nc(Nc5cc(C(F)(F)F)cn(C)c5=O)n(C)c4c3C#N)ccn2)C1` [Example I-9, N-(4-((7-cyano-1-methyl-2-((1-methyl-2-oxo-5-(trifluoromethyl)-1,2-dihydropyridin-3-yl)amino)-1H-imidazo[4,5-b]pyridin-6-yl)oxy)pyridin-2-yl)-3-methoxyazetidine-1-carboxamide], the Kd was below 10 nM.

Turning to `COC(=O)Nc1cc(Oc2cnc3nc(Nc4cc(C(F)(F)F)n(C5CC6(COC6)C5)n4)n(C)c3c2Cl)ccn1` [Example I-10, Methyl(4-((2-((1-(2-oxaspiro[3.3]heptan-6-yl)-5-(trifluoromethyl)-1H-pyrazol-3-yl)amino)-7-chloro-1-methyl-1H-imidazo[4,5-b]pyridin-6-yl)oxy)pyridin-2-yl)carbamate], the Kd is below 10 nM.

For `Cn1cc(C(F)(F)F)cc(Nc2nc3ncc(Oc4ccnc(NC(=O)N5CCCC5)c4)c(C#N)c3n2C)c1=O` [Example I-11, N-(4-((7-cyano-1-methyl-2-((1-methyl-2-oxo-5-(trifluoromethyl)-1,2-dihydropyridin-3-yl)amino)-1H-imidazo[4,5-b]pyridin-6-yl)oxy)pyridin-2-yl)pyrrolidine-1-carboxamide], the Kd was below 10 nM.

Regarding `COCCOC(=O)Nc1cc(Oc2cnc3nc(Nc4cc(C(F)(F)F)cn(C)c4=O)n(C)c3c2C#N)ccn1` [Example I-12, 2-methoxyethyl(4-((7-cyano-1-methyl-2-((1-methyl-2-oxo-5-(trifluoromethyl)-1,2-dihydropyridin-3-yl)amino)-1H-imidazo[4,5-b]pyridin-6-yl)oxy)pyridin-2-yl)carbamate], the Kd was below 10 nM.

As for `CO[C@@H]1CCN(C(=O)Nc2cc(Oc3cnc4nc(Nc5cc(C(F)(F)F)cn(C)c5=O)n(C)c4c3C#N)ccn2)C1` [Example I-13, (R)-N-(4-((7-cyano-1-methyl-2-((1-methyl-2-oxo-5-(trifluoromethyl)-1,2-dihydropyridin-3-yl)amino)-1H-imidazo[4,5-b]pyridin-6-yl)oxy)pyridin-2-yl)methoxypyrrolidine-1-carboxamide], the dissociation constant (Kd) was below 10 nM.

Regarding `Cn1cc(C(F)(F)F)cc(Nc2nc3ncc(Oc4ccnc(NC(=O)OC5COC5)c4)c(C#N)c3n2C)c1=O` [Example I-16, Oxetan-3-yl(4-((7-cyano-1-methyl-2-((1-methyl-2-oxo-5-(trifluoromethyl)-1,2-dihydropyridin-3-yl)amino)-1H-imidazo[4,5-b]pyridin-6-yl)oxy)pyridin-2-yl)carbamate], the Kd is below 10 nM.

Regarding `Cn1cc(C(F)(F)F)cc(Nc2nc3ncc(Oc4ccnc(NC(=O)O[C@H]5CCOC5)c4)c(C#N)c3n2C)c1=O` [Example I-17, (S)-Tetrahydrofuran-3-yl(4-((7-cyano-1-methyl-2-((1-methyl-2-oxo-5-(trifluoromethyl)-1,2-dihydropyridin-3-yl)amino)-1H-imidazo[4,5-b]pyridin-6-yl)oxy)pyridin-2-yl)carbamate], the Kd was below 10 nM.

Regarding `CN(C)CCOC(=O)Nc1cc(Oc2cnc3nc(Nc4cc(C(F)(F)F)cn(C)c4=O)n(C)c3c2Cl)ccn1` [Example I-19, 2-(Dimethylamino)ethyl(4-((7-chloro-1-methyl-2-((1-methyl-2-oxo-5-(trifluoromethyl)-1,2-dihydropyridin-3-yl)amino)-1H-imidazo[4,5-b]pyridin-6-yl)oxy)pyridin-2-yl)carbamate], the Kd was below 10 nM.

For `Cn1cc(C(F)(F)F)cc(Nc2nc3ncc(Oc4ccnc(NC(=O)OCCO)c4)c(C#N)c3n2C)c1=O` [Example I-20, 2-Hydroxyethyl(4-((7-cyano-1-methyl-2-((1-methyl-2-oxo-5-(trifluoromethyl)-1,2-dihydropyridin-3-yl)amino)-1H-imidazo[4,5-b]pyridin-6-yl)oxy)pyridin-2-yl)carbamate], the Kd was below 10 nM.

Turning to `CN(C)C(=O)Nc1cc(Oc2cnc3nc(Nc4cc5n(n4)CCCC5(F)F)n(C)c3c2C#N)ccn1` [Example I-21, 3-(4-((7-cyano-2-((4,4-difluoro-4,5,6,7-tetrahydropyrazolo[1,5-a]pyridin-2-yl)amino)-1-methyl-1H-imidazo[4,5-b]pyridin-6-yl)oxy)pyridin-2-yl)-1,1-dimethylurea], the Kd is below 10 nM.

`COC(=O)Nc1cc(Oc2cnc3nc(Nc4cc5n(n4)CCCC5(F)F)n(C)c3c2C#N)ccn1` [Example I-22, Methyl(4-((7-cyano-2-((4,4-difluoro-4,5,6,7-tetrahydropyrazolo[1,5-a]dpyridin-2-yl)amino)-1-methyl-1H-imidazo[4,5-b]pyridin-6-yl)oxy)pyridin-2-yl)carbamate]: the Kd was below 10 nM.

Take `Cn1c(Nc2cc3n(n2)CCCC3(F)F)nc2ncc(Oc3ccnc(NC(=O)N4CCCC4)c3)c(C#N)c21` [Example I-23, N-(4-((7-cyano-2-((4,4-difluoro-4,5,6,7-tetrahydropyrazolo[1,5-a]pyridin-2-yl)amino)-1-methyl-1H-imidazo[4,5-b]pyridin-6-yl)oxy)pyridin-2-yl)pyrrolidine-1-carboxamide]: the dissociation constant (Kd) was below 10 nM.

Consider `CN1CCN(C(=O)Nc2cc(Oc3cnc4nc(Nc5cc6n(n5)CCCC6(F)F)n(C)c4c3C#N)ccn2)CC1` [Example I-24, N-(4-((7-cyano-2-((4,4-difluoro-4,5,6,7-tetrahydropyrazolo[1,5-a]pyridin-2-yl)amino)-1-methyl-1H-imidazo[4,5-b]pyridin-6-yl)oxy)pyridin-2-yl)-4-methylpiperazine-1-carboxamide], for which the Kd was in the range of 10 to 50 nM.
